Positions of bridges follow the written chain, without caps; N, C: chain ends. Chains are numbered I, II in the order given. No end group written: not given here.
Legend:
IL-1RI–IL-1β binding = target: T1, IL-1RI–IL-1β binding (Homo sapiens, UniProt P14778); assay: SPR competition: binding of IL-1RI ectodomain to immobilized IL-1β in the presence of peptide; details: three experiments
T1 construct: purchased R&D Systems
T1 sequence (P14778 18-336 limits assumed): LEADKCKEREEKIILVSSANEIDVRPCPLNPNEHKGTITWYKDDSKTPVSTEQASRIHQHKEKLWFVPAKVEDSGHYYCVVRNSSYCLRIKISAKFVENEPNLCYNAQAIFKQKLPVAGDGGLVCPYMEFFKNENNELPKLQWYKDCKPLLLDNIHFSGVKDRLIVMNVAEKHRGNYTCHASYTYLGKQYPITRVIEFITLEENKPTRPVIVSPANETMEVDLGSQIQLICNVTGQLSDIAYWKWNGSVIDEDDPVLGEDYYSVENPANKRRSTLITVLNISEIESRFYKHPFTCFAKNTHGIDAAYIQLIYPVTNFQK
Procedure: (§1) The binding analysis was performed using a Biacore 2000 instrument (GE Healthcare Life Sciences) that contained 150 mM NaCl as running buffer at 25°C with 10 mM sodium phosphate (pH 7.4). The flow rate was 5 μl/min during immobilization. Ilantide peptide, IL-1β or IL-1Ra was immobilized on a CM4 sensor chip according to the manufacturer’s instructions, after which the recombinant ectodomain of IL-1RI (R&D Systems) was injected. The neural cell adhesion molecule (NCAM) immunoglobulin modules 1 and 2 (Ig1 and Ig2) were used as a negative control protein [9]. The data were analyzed using nonlinear curve-fitting with the manufacturer’s software.
Figure 2 Interaction between Ilantide, interleukin 1β, and interleukin 1 receptor antagonist and soluble IL-1 receptor type I. Binding was studied using surface plasmon resonance analysis. […] Binding is expressed as the response difference between the binding of IL-1 receptor type I (IL-1RI) to the sensor chip with the immobilized peptide, IL-1β, or IL-Ra and a blank sensor chip. […] The results from three experiments are expressed as mean RU ± SEM. **P < 0.01 and ***P < 0.001 compared with binding of IL-1RI alone to IL-1β (one-way analysis of variance followed by the Newman-Keuls post hoc test).

[1] = system: HEK-Blue IL-1β cells (IL-1RI / NF-κB); assay: IL-1β-induced NF-κB activation, SEAP reporter; format: cell-based; details: 1.2 pM IL-1β, 24 hours, SEAP read at 600 nm, four independent experiments
Procedure: HEK-Blue IL-1β cells that contained an IL-1β-sensitive reporter (InvivoGen, San Diego, CA, USA) and HEK-Blue IL-6 cells that contained an IL-6-sensitive reporter (InvivoGen) were grown at 37°C with 5% CO2 in Dulbecco’s modified Eagle’s medium (DMEM) supplemented with 5% (vol/vol) fetal calf serum (FCS), 4.5 g/L glucose, 2 mM GlutaMAX medium, 100 U/ml penicillin, 100 μg/ml streptomycin (all obtained from Gibco BRL/Life Technologies, Taastrup, Denmark), 100 μg/ml zeocin, 200 μg/ml hygromycin and 100 μg/ml Normocin (all purchased from InvivoGen).
HEK-Blue IL-1β cells allow the monitoring of the activation of the NF-κB pathway specifically in response to IL-1β. They express a NF-κB-inducible secreted embryonic alkaline phosphatase (SEAP) reporter gene. The binding of IL-1β to its receptor IL-1RI on the surface of HEK-Blue IL-1β cells triggers a signaling cascade that leads to the activation NF-κB and the subsequent production of SEAP. HEK-Blue IL-1β cells were grown as described above. The cells were seeded onto a 96-well plate at a density 3.5 × 10^5 cells/ml. For the NF-κB activation assay, the cells were treated with 1.2 pM IL-1β alone or together with sIL-1RI, IL-1Ra or various concentrations of Ilantide. After 24 hours of incubation at 37°C, 150 μl of the cell supernatants were added to each well of a 96-well plate together with 50 μl of QUANTI-Blue (InvivoGen), incubated at 37°C for 40 minutes and measured in an enzyme-linked immunosorbent assay (ELISA) reader at 600 nm to determine the expression levels of reporter genes activated by NF-κB.

[2] = system: Aβ25–35-induced social memory deficit; format: in vivo; details: rat, Aβ25–35 15 μg i.c.v., Ilantide-t 10 mg/kg s.c., third trial
Procedure: Aggregates of Aβ25-35 (Bachem AG, Weil am Rhein, Germany) were prepared by incubating the peptides at a concentration of 3 μg/μl in sterile water for 4 days at 37°C. Subsequently, 5 μl of aggregated Aβ25-35 were injected intracerebroventricularly (1.2 μl/min) with a 10-μl Hamilton syringe using the following coordinates: 0.8 mm posterior to the bregma, 1.5 mm lateral to the sagittal suture and 3.8 mm beneath the surface of the brain. The procedure was performed while the animals were under anesthesia (i.p. fentanyl-fluanisone/midazolam at 0.3 ml/100-g animal; that is, 23.6 μg of fentanyl, 0.75 mg of fluanisone and 375 μg midazolam per 100-g animal). Social memory in animals reflects the ability of individuals to recognize conspecifics as familiar or unfamiliar. […] During each trial, the investigative behavior of the adult toward the juvenile (that is, licking, sniffing and chewing the fur of the juvenile) was monitored with a video camera and scored by an observer who was blinded to the treatment of the animals. […] The time spent investigating a novel juvenile (T3) was measured to confirm that the effect seen with the familiar juvenile was specific to cognition. In this case, RRnew was calculated as T3/(T1 + T3).

ectodomain of IL-1RI = target: T2, ectodomain of IL-1RI (Homo sapiens, UniProt P14778); assay: Surface plasmon resonance binding of immobilized ligand to recombinant IL-1RI ectodomain; details: SPR, Biacore 2000, ligand immobilized on CM4 chip, IL-1RI ectodomain injected, 25°C, pH 7.4
T2 construct: the recombinant ectodomain of IL-1RI (R&D Systems) was injected; purchased R&D Systems
T2 sequence (P14778 18-336 limits assumed): T1 sequence (P14778 18-336 limits assumed)
Procedure: as §1

Row | Substance | Inhibition of binding between IL-1RI and IL-1β (IL-1RI–IL-1β binding) | Inhibition of NF-κB activation induced by IL-1β [1] | RRnew (recognition ratio with new juvenile) [2] | k d (ectodomain of IL-1RI)
1 | I: SGRKSSKMQAKK-NH2 / II: SGRKSSKMQAK / III: SGRKSSKMQA / IV: SGRKSSKMQA (amide I:11-IV:C, I:12-II:C, II:11-III:C; C-terminus assumed) [Ilantide-t] | dose-dependently inhibited | dose-dependently inhibited | did not differ from 0.5 | 
2 | IL-1Ra: recombinant interleukin 1 receptor antagonist purchased from R&D Systems |  | dose-dependently inhibited |  | 3.62 ± 0.65 × 10^-3 s^-1

— article PMC3923439, “Anti-inflammatory properties of a novel peptide interleukin 1 receptor antagonist” (Journal of Neuroinflammation, 2014)
